Results on 14 molecules are retold here after US20100203175A1, “DEGLYCATION OF AGEs” (BASF BEAUTY CARE SOLUTIONS FRANCE S.A.S., priority 2007, published 2010).

AGEs (bovine serum albumin (BSA) incubated with a reducing sugar), sequence (P02769 25-607): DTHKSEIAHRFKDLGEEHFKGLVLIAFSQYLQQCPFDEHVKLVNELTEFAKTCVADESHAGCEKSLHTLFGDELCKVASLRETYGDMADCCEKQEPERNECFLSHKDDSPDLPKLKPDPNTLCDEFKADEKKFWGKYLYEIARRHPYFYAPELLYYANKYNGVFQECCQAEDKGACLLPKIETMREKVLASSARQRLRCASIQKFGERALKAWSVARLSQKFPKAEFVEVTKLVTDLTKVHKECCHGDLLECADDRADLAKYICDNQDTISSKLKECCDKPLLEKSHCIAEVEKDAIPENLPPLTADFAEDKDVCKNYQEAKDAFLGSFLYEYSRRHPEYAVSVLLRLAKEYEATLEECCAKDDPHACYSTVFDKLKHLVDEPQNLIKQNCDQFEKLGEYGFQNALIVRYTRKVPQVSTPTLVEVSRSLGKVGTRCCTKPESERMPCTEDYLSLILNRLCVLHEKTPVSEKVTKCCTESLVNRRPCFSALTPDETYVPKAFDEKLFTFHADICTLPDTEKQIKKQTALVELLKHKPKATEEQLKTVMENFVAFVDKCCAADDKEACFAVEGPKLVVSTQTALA

This assay addresses AGEs (bovine serum albumin (BSA) incubated with a reducing sugar) (Bos taurus, UniProt P02769). Put plainly: Reversion of the Maillard reaction: deglycation of AGEs prepared from bovine serum albumin and glucose, fluorescence read-out. Type of assay: biochemical. To be noted: characterized molecules, in particular at 1×10^−1% in water or DMSO; about 50° C., 3 weeks; fluorescence with active principle versus positive control (15 mM aminoguanidine). On the procedure:
The preparation of a solution containing a protein and a reducing sugar was carried out extemporaneously as follows: a solution of bovine serum albumin (BSA) at a concentration between 1.5 μM and 1.5M, preferably between 15 μM and 500 μM was incubated with a solution of a reducing sugar such as glucose, fructose, etc., preferably with glucose at a concentration between 0.1M and 10M and preferably between 0.5M and 5M.
The incubation was maintained between 1 and 5 weeks, and preferably for 3 weeks.
The measure of inhibition of the AGEs was carried out by measuring the fluorescence (excitation wavelength between 350 and 375 nm, preferably at 355 nm; emission wavelength between 420 and 450 nm, preferably at 430 nm). The reversion of the Maillard reaction was calculated by comparing the fluorescence of AGEs set at 100% (maximum fluorescence) with the fluorescence of AGEs+active agent tested.
The preparation of a protein/reducing sugar solution was carried out according to the method described in Example 1 (paragraph 1).
The preparation of a solution of protein/reducing sugar was carried out according to the method described in Example 1 (paragraph 1). […]
For the molecule `Oc1cc(O)c2c(c1)O[C@@H](c1ccc(O)c(O)c1)[C@H](O)C2` (relative stereo) [trans-3,3′,4′,5,7-Pentahydroxyflavane], the “% deglycation” value is reported as 100%.

As for `Oc1cc(O)cc(O)c1` [1,3,5-Trihydroxybenzene (phloroglucinol), 1,3,5-Trihydroxybenzene], the “% deglycation” value is 100%.

Consider `O=c1cc(CO)occ1O` [2-Hydroxymethyl-5-hydroxy-γ-pyrone], for which the “% deglycation” value was determined as 97%.

For `O=C(O)C=Cc1ccc(O)c(O)c1` [3,4-Dihydroxycinnamic acid], the “% deglycation” value was found to be 88%.

Take `O=C(O)Cc1ccc(O)c(O)c1` [3,4-Dihydroxyphenylacetic acid (DOPAC), 3,4-Dihydroxyphenylacetic acid]: the “% deglycation” value was 100%.

On to `COc1cc(C=CC(=O)O)cc(OC)c1O` [3,5-Dimethoxy-4-hydroxycinnamic acid], for which the “% deglycation” value came out at 100%.

As for `Nc1ccc(O)cc1` [4-Aminophenol], the “% deglycation” value is on record as 100%.

Regarding `Cc1c(C)c2c(c(C)c1O)CCC(C)(C(=O)O)O2` (centres unmarked) [6-Hydroxy-2,5,7,8-tetramethylchromane-2-carboxylic acid], the “% deglycation” value worked out at 100%.

For `Cc1cn2c(=O)c3ccccc3nc2n2c(=O)c3ccccc3nc12` [6-Methyl-5,7a,13,13b-tetraazapentaphene-8,14-dione], the “% deglycation” value worked out at 100%.

For `Cc1cc(C)c2c(c1O)C(=O)OC2` [7-Hydroxy-4,6-dimethyl phthalide], the “% deglycation” value is 100%.

Take `Oc1ccc2cc[nH]c2c1` [Indole alcohol amine II, 6-Hydroxyindole]: the “% deglycation” value is on record as 100%.

As to `CC(Cc1ccc(O)c(O)c1)C(C)Cc1ccc(O)c(O)c1` (centres unmarked) [Nordihydroguaiaretic acid], the “% deglycation” value stood at 100%.

For `O=C1Cc2ccccc2N1` [Oxindole], the “% deglycation” value worked out at 100%.

As to `CNC(=O)Oc1ccc2c(c1)[C@]1(C)CCN(C)[C@@H]1N2C` [Physostigmine], the “% deglycation” value amounted to 87%.
